Data on 3 compounds can be found in patent US8748435B2, “Pyrazolo pyrimidine derivatives” (Novartis AG, priority 2011, dated 2014).

For test [1], the system named is VEGF-induced angiogenesis. As to the kind of experiment: GPR4 activity in VEGF-induced angiogenesis in mice (growth factor implant model). The test is classed as in vivo. To be noted: po 30 mg/kg bid, day 4 after chamber implantation. The protocol: d) GPR4 Activity in VEGF-Induced Angiogenesis in Mice
The functional activity of GPR4 was determined in the angiogenesis growth factor implant model. Porous tissue chambers made of perfluoro-alkoxy-Teflon were filled with 0.8% agar and 20 U/ml heparin supplemented with or without 8 μg/ml recombinant human VEGF. The solutions were maintained at 39° C. prior to the filling procedure. Mice were anesthetized using 3% isoflurane inhalation. For subcutaneous implantation, a small skin incision was made at the base of the tail to allow the insertion of an implant trocar. The chamber was implanted under aseptic conditions through the small incision onto the back of the animal. The skin incision was closed by wound clips. The compounds were applied po at 30 mg/kg bid starting at the day of the chamber implantation.
On the 4th day after implantation, animals were sacrificed using CO2. Chambers were excised and the vascularized fibrous tissue formed around each implant carefully removed and weighed and expressed as Δ tissue weight % [((compound/VEGF)−(no compound/no VEGF))/((no compound/VEGF)−no compound/no VEGF))×100]. Body weight was used to monitor the general condition of the mice.

In test [2] the test system is antigen-induced arthritis (knee swelling). As to the kind of experiment: Rat antigen-induced arthritis model. The test is classed as in vivo. To be noted: oral gavage, AUC of R/L knee swelling ratio vs control. The protocol:
e) GPR4 Activity in Rat Antigen-induced Arthritis Model Female Lewis rats were sensitised intradermally on the back at two sites to methylated bovine serum albumin (mBSA) homogenised 1:1 with complete Freund's adjuvant on days −21 and −14 (0.1 ml containing 1 mg/ml mBSA). On day 0, the right knee received […] of 10 mg/ml mBSA in 5% glucose solution (antigen injected knee), while the left knee received […] of 5% glucose solution alone (vehicle injected knee). The diameters of the left and right knees were then measured using calipers immediately after the intra-articular injections and again on days 2, 4 and 7. The compounds of the invention were administered twice daily by oral gavage; vehicle (saline) at 5 ml/kg, and dexamethasone at 0.3 mg/kg was given as a control. Right knee swelling was calculated as a ratio of left knee swelling, and the R/L knee swelling ratio plotted against time to give Area Under the Curve (AUC) graphs for control and treatment groups. The percentage inhibition of the individual treatment group AUCs were calculated vs the control group AUC (0% inhibition).

In the next test the test system is CFA-induced hyperalgesia. As to the kind of experiment: Established rat hyperalgesia model (CFA). The test is classed as in vivo. To be noted: gavage. The protocol:
f) Established Rat Hyperalgesia Model
Naïve withdrawal thresholds of both hind paws were determined by using an increasing pressure stimulus placed onto the dorsal surface of each paw using an analgesymeter. Delayed inflammatory pain was then induced by intra-plantar injection of 25 μl of complete Freund's adjuvant (CFA) into one hindpaw with the contralateral paw acting as the control. […] One hour later, paw withdrawal thresholds were re-measured on both the ipsilateral (CFA-injected) and contralateral (uninjected) paw; measurements were repeated at 3 hrs and 6 hrs post dosing. The reversal of hyperalgesia was calculated using the following formula: Reversal (%)=100×(postdose ipsilateral threshold−predose ipsilateral threshold) (naïve ipsilateral threshold−predose ipsilateral threshold).

Test [3] concerns the target T1, human GPR4 (Homo sapiens (Human), UniProt P46093). As to the kind of experiment: Human GPR4 binding assay ([3H]4 radioligand, membranes of 300.19 cells expressing human GPR4). To be noted: radioligand [3H]4 (example 39), membranes of 300.19 cells expressing human GPR4.
The target of test [4] is T1, human GPR4. As to the kind of experiment: Human GPR4 binding assay with additional human serum albumin (4% HSA). To be noted: binding assay with 4% HSA.
Test [5] has as its target T1, human GPR4. As to the kind of experiment: Cell-based assay for human GPR4 activity (pH-induced cAMP formation, HTRF, HeLa cells). To be noted: HeLa cells stably expressing human GPR4, pH-induced cAMP.
In a further test the target is mouse GPR4 (Mus musculus (Mouse), UniProt Q8BUD0). As to the kind of experiment: Mouse GPR4 cAMP assay. The test is classed as cell-based.
A further test addresses rat GPR4 (Rattus norvegicus (Rat), UniProt Q4KLH9). As to the kind of experiment: Rat GPR4 cAMP assay. The test is classed as cell-based. To be noted: read-out: r cAMP IC50.
Another test has as its target Human H3 (Homo sapiens (Human), UniProt Q9Y5N1). As to the kind of experiment: Human H3 binding assay (SPA, [3H]-R-alpha-Methylhistamine). To be noted: 3 nM [3H]-R-alpha-Methylhistamine.

Counter-ions that a name gives are not always drawn.

T1 sequence (P46093 whole entry): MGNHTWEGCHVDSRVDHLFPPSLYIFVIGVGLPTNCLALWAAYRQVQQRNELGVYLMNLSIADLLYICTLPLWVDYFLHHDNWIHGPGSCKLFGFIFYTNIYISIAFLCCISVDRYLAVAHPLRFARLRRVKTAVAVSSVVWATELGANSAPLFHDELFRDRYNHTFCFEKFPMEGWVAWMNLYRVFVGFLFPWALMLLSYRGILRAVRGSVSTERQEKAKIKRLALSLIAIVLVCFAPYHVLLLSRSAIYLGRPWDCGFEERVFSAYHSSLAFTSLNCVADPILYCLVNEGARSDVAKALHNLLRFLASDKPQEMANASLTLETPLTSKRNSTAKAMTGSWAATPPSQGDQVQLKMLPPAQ
mouse GPR4, sequence (Q8BUD0 whole entry): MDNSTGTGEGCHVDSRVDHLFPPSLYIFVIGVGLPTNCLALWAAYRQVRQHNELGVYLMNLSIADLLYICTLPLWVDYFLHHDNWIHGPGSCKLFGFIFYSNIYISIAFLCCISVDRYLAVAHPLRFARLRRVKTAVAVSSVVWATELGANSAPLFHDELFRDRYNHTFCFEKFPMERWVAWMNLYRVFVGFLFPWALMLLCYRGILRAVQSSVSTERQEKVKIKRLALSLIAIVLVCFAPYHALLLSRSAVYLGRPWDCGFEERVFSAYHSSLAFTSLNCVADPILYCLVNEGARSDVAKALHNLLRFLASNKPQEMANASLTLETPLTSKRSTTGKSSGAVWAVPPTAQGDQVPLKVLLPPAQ
rat GPR4, sequence (Q4KLH9 whole entry): as the sequence (Q8BUD0 whole entry) above, with G8W, H51R, S339T counted along it
Human H3, sequence (Q9Y5N1 whole entry): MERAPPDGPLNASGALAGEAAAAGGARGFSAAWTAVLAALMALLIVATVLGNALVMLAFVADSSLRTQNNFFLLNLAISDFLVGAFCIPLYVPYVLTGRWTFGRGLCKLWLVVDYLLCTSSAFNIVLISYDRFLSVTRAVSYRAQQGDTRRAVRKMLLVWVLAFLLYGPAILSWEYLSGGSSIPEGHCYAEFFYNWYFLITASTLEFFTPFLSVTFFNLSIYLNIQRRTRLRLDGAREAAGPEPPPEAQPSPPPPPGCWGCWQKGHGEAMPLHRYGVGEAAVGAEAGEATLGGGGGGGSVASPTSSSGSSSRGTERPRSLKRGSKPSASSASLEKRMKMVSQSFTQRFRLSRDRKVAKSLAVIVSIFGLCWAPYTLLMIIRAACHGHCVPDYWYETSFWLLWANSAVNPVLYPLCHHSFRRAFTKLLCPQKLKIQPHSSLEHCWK

Regarding `CCc1nn2c(C)cc(C)nc2c1Cc1ccc(-c2nnc(C3CCNCC3)o2)cc1` [Example 35, 2-Ethyl-5,7-dimethyl-3-[4-(5-piperidin-4-yl-[,3,4]oxadiazol-2-yl)-benzyl]-pyrazolo[1,5-a]pyrimidine], the Δ tissue weight in test [1] was 49%. For the same compound, the Inhibition of swelling in test [2] (30 mg/kg bid) turned out to be 26%; in test [2] (60 mg/kg bid) it was 34%; in test [2] (90 mg/kg bid), 40%. The “% reversal of hyperalgesia” value is recorded as 36% with CFA-induced hyperalgesia (3 mg/kg, 1 h); 25% in the test with CFA-induced hyperalgesia (3 mg/kg, 3 h); 5% in the test on CFA-induced hyperalgesia (3 mg/kg, 6 h); 43% with CFA-induced hyperalgesia (10 mg/kg, 1 h); 36% with CFA-induced hyperalgesia (10 mg/kg, 3 h); 15% in the test on CFA-induced hyperalgesia (10 mg/kg, 6 h). Besides, the “% reversal of hyperalgesia” value in the test on CFA-induced hyperalgesia (30 mg/kg, 1 h) is on record as 62%; with CFA-induced hyperalgesia (30 mg/kg, 3 h), 47%; in the test on CFA-induced hyperalgesia (30 mg/kg, 6 h), 25%.

By IC50 is commonly meant the point on the concentration scale where inhibition reaches its midpoint. As for `CCc1nn2c(C)cc(C)nc2c1Cc1ccc(/C=C/CN2CCN[C@@H](C)C2)cc1` [Example 9, 2-Ethyl-5,7-dimethyl-3-{4-[(E)-3-((S)-3-methyl-piperazin-1-yl)-propenyl]-benzyl}-pyrazolo[1,5-a]pyrimidine], the half-maximal inhibitory concentration (IC50) at human GPR4 [3] was found to be 19 nM; on human GPR4 [4], 6 nM; at human GPR4 [5], 59 nM; against mouse GPR4, 890 nM; on rat GPR4 it was 1440 nM; on Human H3 it was 18000 nM. Besides, in test [1], the Δ tissue weight worked out at 44%.

Take `CCc1nn2c(C)cc(C)nc2c1Cc1ccc(/C=C/CN2CCN[C@H](CO)C2)cc1` [Example 8, ((S)-4-{(E)-3-[4-(2-Ethyl-5,7-dimethyl-pyrazolo[1,5-a]pyrimidin-3-ylmethyl)-phenyl]-allyl}-piperazin-2-yl)-methanol dihydrochloride]: the half-inhibitory concentration (IC50) was 28 nM on human GPR4 [3]; 51 nM on human GPR4 [4]; 34 nM against human GPR4 [5]; 378 nM against mouse GPR4; 670 nM on rat GPR4; > 30000 nM on Human H3. For the same compound, the Inhibition of swelling in test [2] (90 mg/kg bid) is 30%.
